Consider seven compounds from US6818651B2, “(Dihydro) isoquinoline derivatives as phosphodiesterase inhibitors” (Altana Pharma AG, priority 2000, dated 2004).

The term IC50 denotes the concentration that gives 50% inhibition.

For the experiment, the target named is T1, recombinant PDE7A1 (Homo sapiens, UniProt Q13946).
T1 construct: made in house; host or cells: SF21 insect cells (baculovirus; virus made in SF9)
T1 sequence (Q13946 whole entry): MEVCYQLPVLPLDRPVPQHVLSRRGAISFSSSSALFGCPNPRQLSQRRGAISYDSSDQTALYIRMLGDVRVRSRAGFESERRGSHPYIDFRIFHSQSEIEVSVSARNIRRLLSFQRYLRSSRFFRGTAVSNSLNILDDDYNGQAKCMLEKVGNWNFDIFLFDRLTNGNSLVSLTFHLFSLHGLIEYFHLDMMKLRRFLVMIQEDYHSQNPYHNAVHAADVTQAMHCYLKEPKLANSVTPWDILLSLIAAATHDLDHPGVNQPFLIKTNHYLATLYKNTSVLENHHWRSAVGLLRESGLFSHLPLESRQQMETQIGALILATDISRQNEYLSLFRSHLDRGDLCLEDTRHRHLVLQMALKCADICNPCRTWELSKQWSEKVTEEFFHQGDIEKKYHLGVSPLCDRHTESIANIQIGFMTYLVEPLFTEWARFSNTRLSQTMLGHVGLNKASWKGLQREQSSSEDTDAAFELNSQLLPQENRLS
The experiment in a line: Inhibition of PDE7 activity, modified SPA (scintillation proximity assay) test. In kind it is biochemical. Particulars: recombinant PDE7A1 (1000×g supernatant of SF21 cells), 0.5 μM cAMP, [3H]cAMP SPA, 37° C.; read-out: −log IC50 (inhibition of PDE7 activity) (converted). An excerpt:
Cloning and expression of PDE7: The cDNAs for PDE7A1 and 7A2 (GenBank Acc-: L12052 and u67932, respectively) were isolated, using RT-PCR, from total cellular RNA derived from the T cell line CCRF-CEM and cloned into the cloning vector pCR2.1 (Invitrogen, Groningen, NL) under standard conditions (the manufacturer's instructions). For expression in insect cells, the cDNAs were subcloned into the baculo expression vector pCRBac (Invitrogen, Groningen, NL).
The recombinant baculoviruses were prepared, by means of homologous recombination in SF9 insect cells, by cotransfecting the plasmids containing baculovirus DNA (wild type, wt) Bac-N-Blue (Invitrogen, Groningen, NL) for PDE7A1 and containing Baculo-Gold DNA (Pharmingen, Hamburg) using a standard protocol (Pharmingen, Hamburg). Wt virus-free recombinant virus supernatants were selected using plaque assay methods. After that, high-titre virus supernatants were prepared by amplifying 3 times. For determining the enzyme activities, the PDEs were expressed in SF21 cells by infecting 2×10^6 cells/ml with an MOI (multiplicity of infection) ≈5 in serum-free SF900 medium (Life Technologies, Paisley, UK) in spinner flasks. The cells were cultured at 28° C., and at a rotationall speed of 75 rpm, for 48 hours, after which they were pelleted for 5-10 min at 1000 g and 4° C. and then resuspended in 1×PBS at a concentration of 1-3×10^6 cells/ml. The protein content was determined by the Bradford method (BioRad, Munich) using BSA as the standard.
The SF21 insect cells are resuspended, at a concentration of approx. 10^7 cells/ml, in ice-cold (4° C.) homogenization buffer (20 mM Tris, pH 8.2, containing the following additions: 140 mM NaCl, 3.8 mM KCl, 1 mM EGTA, 1 mM MgCl2, 1 mM β-mercaptoethanol, 2 mM benzamidine, 0.4 mM Pefablock, 10 μM leupeptin, 10 μM pepstatin A, 5 μM trypsin inhibitor) and disrupted by ultrasonication. The homogenate is then centrifuged for 10 min at 1000×g and the supernatant is stored at −80° C. until subsequent use (see below).
The PDE7 activity was inhibited by said compounds in a modified SPA (scintillation proximity assay) test, supplied by Amersham Pharmacia Biotech (see procedural instructions “Phosphodiesterase [3H]cAMP SPA enzyme assay, code TRKQ 7090”), carried out in 96-well microtitre plates (MTPs). The test volume is 100 μl and contains 20 mM Tris buffer (pH 7.4), 0.1 mg of BSA (bovine serum albumin)/ml, 5 mM Mg^2+, 0.5 μM cAMP (including about 50,000 cpm of [3H]cAMP), 2 μl of the respective substance dilution in DMSO and sufficient recombinant PDE7A1 (1000×g supernatant, see above) to ensure that 15-20% of cAMP is converted under said experimental conditions. After a preincubation of 5 min at 37° C., the reaction is started by adding a substrate (cAMP) and the assays are incubated for a further 15 min; after that, they are stopped by adding SPA beads (50 μl). In accordance with the manufacturer's instructions, the SPA beads had previously been resuspended in water and diluted 1:3 (v/v) and added to IBMX (3 mM). After the beads have been sedimented (>30 min), the MTPs are analyzed in commercially available measuring appliances and the corresponding IC50 values of the compounds for the inhibition of PDE7 activity are determined from concentration-effect curves by means of non-linear regression.
The inhibitory values [inhibitory concentration as −logIC50 (mol/l)] which were determined for the compounds according to the invention are shown in the following table 1, in which the numbers of the compounds correspond to the numbers of the examples.
On to `O=S(=O)(Nc1ccc(C2=NCCc3ccc(Cl)cc32)cc1)c1cc(Br)c(Cl)s1` [Compound 6m, 1-[4-(4-Bromo-5chlorothiophene-2-sulfonamido)phenyl]-7-chloro-3,4-dihydroisoquinoline], for which the IC50 is 380 nM.

As to `O=S(=O)(Nc1ccc(C2=NCCc3ccc(F)cc32)cc1)c1cccc(C(F)(F)F)c1` [Compound 4c, 1-[4-(3-Trifluoromethylbenzenesulfonamido)phenyl]-7-fluoro-3,4-dihydroisoquinoline], the IC50 was 257 nM.

`O=S(=O)(C=Cc1ccccc1)Nc1ccc(C2=NCCc3ccc(Cl)cc32)cc1` [Compound 6h, 1-[4-(2-Phenylethenesulfonamido)phenyl]-7-chloro-3,4-dihydroisoquinoline]: the half-inhibitory concentration (IC50) is 245 nM.

Regarding `O=S(=O)(Nc1ccc(C2=NCCc3ccc(F)cc32)cc1)c1ccc2ccccc2c1` [Compound 4e, 1-[4-(Naphthalene-2-sulfonamido)phenyl]-7-fluoro-3,4-dihydroisoquinoline], the half-inhibitory concentration (IC50) is 389 nM.

Take `COc1cc(C2=NCCc3ccc(Cl)cc32)ccc1NS(=O)(=O)c1ccc(OC(F)(F)F)cc1` [Compound 1a, 1-[4-(4-Trifluoromethoxybenzenesulfonamido)-3-methoxyphenyl]-7-chloro-3,4-dihydroisoquinoline]: the half-maximal inhibitory concentration (IC50) was 32.4 nM.

For the compound `COc1cc(C2=NCCc3ccc(Cl)cc32)ccc1NS(=O)(=O)c1ccc(C)cc1` [Compound 1b, 1-[4-(4-Methylbenzenesulfonamido)-3-methoxyphenyl]-7-chloro-3,4-dihydroisoquinoline], the IC50 is 123 nM.

Consider `COc1cc(C2=NCCc3ccccc32)ccc1NS(=O)(=O)c1ccc(-c2ccon2)s1` [Compound 2a, 1-[4-(5-(Isoxazol-3-yl)-thiophene-2-sulfonamido)-3-methoxyphenyl]-3,4-dihydroisoquinoline], for which the 50% inhibitory concentration (IC50) was 295 nM.
